Experimental data reported in US6288230A, “2-(2, 3-dihydrobenzofuran-5-yl)-4-aminomethylimidazoles: dopamine receptor subtype specific ligands” (Neurogen Corporation, priority 1999, dated 2001).
Counter-ions that a name gives are not always drawn.

Legend:
D4 receptor = D4 receptor binding (displacement of 3H-YM 09151-2, COS cells with recombinant receptor); parameters: species or system African Green monkey; conditions: 0.5 nM 3H-YM 09151-2; nonspecific binding with 1 mM spiperone
Description: Pellets of COS cells containing recombinantly produced D2 or D4 receptors from African Green monkey are used for the assays. The sample is homogenized in 100 volumes (w/vol) of 0.05 M Tris HCl buffer at […] and pH 7.4. The sample is then centrifuged at 30,000×g and resuspended and rehomogenized. The sample is then centrifuged again at 30,000×g and the final tissue sample is frozen until use. The tissue is resuspended 1:20 (wt/vol) in 0.05 M Tris HCl buffer containing 100 mM NaCl.

D2 receptor = D2 receptor (Chlorocebus aethiops, UniProt P52702); test: D2 receptor binding (displacement of 3H-YM 09151-2, COS cells with recombinant receptor); parameters: species or system African Green monkey; conditions: 0.5 nM 3H-YM 09151-2; nonspecific binding with 1 mM spiperone
Sequence of D2 receptor (P52702 whole entry): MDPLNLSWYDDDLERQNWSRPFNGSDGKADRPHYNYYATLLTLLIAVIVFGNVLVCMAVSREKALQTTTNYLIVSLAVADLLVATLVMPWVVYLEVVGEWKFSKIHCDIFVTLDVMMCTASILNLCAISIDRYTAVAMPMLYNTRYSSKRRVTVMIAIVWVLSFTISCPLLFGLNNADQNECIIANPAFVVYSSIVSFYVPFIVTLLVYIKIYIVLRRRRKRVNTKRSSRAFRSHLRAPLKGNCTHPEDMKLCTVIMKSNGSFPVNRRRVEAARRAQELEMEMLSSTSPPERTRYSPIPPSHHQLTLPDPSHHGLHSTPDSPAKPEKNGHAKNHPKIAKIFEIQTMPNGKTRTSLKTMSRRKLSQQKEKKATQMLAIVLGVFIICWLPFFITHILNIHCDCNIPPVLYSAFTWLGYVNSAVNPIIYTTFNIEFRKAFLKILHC

Compound	Ki (D4 receptor)	Ki (D2 receptor)
c1ccc(CC2CCN(Cc3c[nH]c(-c4ccc5c(c4)CCO5)n3)CC2)cc1 [Compound 6, 2-(2,3-Dihydrobenzofuran-5-yl)-4-(1-[4-benzylpiperidin-1-yl]methyl)imidazole hydrochloride]	3 nM	650 nM
Cc1cnc(N2CCN(Cc3cnc(-c4ccc5c(c4)CCO5)[nH]3)CC2)nc1 [Compound 3a, 5-(5-{[4-(5-methylpyrimidin-2-yl)piperazinyl]-methyl}imidazol-2-yl)-2,3-dihydrobenzo[b]furan]	–	716 nM
COc1ccccc1N1CCN(Cc2c[nH]c(-c3ccc4c(c3)CCO4)n2)CC1 [Compound 1, 2-(2,3-Dihydrobenzofuran-5-yl)-4-(1-[4-{2-methoxyphenyl}piperazin-1-yl]methyl)imidazole]	3 nM	143 nM
c1ccc2c(N3CCN(Cc4c[nH]c(-c5ccc6c(c5)CCO6)n4)CC3)nccc2c1 [Compound 8, 2-(2,3-Dihydrobenzofuran-5-yl)-4-(1-[4-{isoquinolin-1-yl}piperazin-1-yl]methyl)imidazole]	1 nM	125 nM
c1ccc2nc(N3CCN(Cc4cnc(-c5ccc6c(c5)CCO6)[nH]4)CC3)ncc2c1 [Compound 7, 2-(2,3-Dihydrobenzofuran-5-yl)-4-(1-[4-{4,5-benzopyrimidin-2-yl}piperazin-1-yl]methyl)imidazole hydrochloride]	32 nM	1130 nM
